Measured values as given in patent US20120041062A1, “COMPOUND OF SALVIANOLIC ACID L, PREPARATION METHOD AND USE THEREOF” (Tianjin Tasly Pharmaceutical Co., Ltd., priority 2009, published 2012).

Columns and labels:
[1] = system: H2O2-damaged PC12 cell; experiment: Cell survival rate of H2O2-damaged PC12 cell (MTT method); type: cell-based; conditions: pre-treated 6 hours, 0.5 mM H2O2 1 hour
Method: (§1) a. MTT was added into 96-well microplate with 20 μl in each well, and reacted for 4 hours in incubator.
(§2) b. The supernatant was discarded, followed by addition of 150 μl DMSO in each well and shaken on flat shaking-table for 10 min.
(§3) c. Absorbance of each well was measured by ELISA reader at wavelength of 570 nm to calculate cell survival rate.
(§4) Cell survival rate %=(OD value of drug administration group/OD value of negative control group)×100%
(§5) a. PC12 cells at, exponential growth phase in good condition were washed with PBS twice, followed by addition of 0.25% trypsin digestive solution to perform digestion at 37° C. for about 1 min. This reaction was ended by addition of blood serum-contained culture medium, centrifuged and resuspended, then counted the cells to prepare a suspension with a cell density of 2×10^4−4×10^4 cells/ml.
(§6) b. The resulting cell suspension was inoculated into 96-well microplate with 180 μl in each well (n=3) and incubated in constant temperature CO2 incubator at 37° C. for 24 hours.
c. Grouping and treatments: there were 4 groups: blank control group (PBS), solvent control group (DMSO), model group (H2O2) and positive control group (Edaravone).
Positive control group: Edaravone (2 μg/ml) is added as a positive drug and then pre-treated for 6 hours, into which 0.5 mM hydrogen peroxide was added to damage for 1 hour and replaced with freshly-prepared DMEM+10%FBS culture medium, 200 μl per well.
(§7) d. The cell activity was determined by MTT method.
as §5, with “at” for “at,”
(§8) c. Grouping and treatments: there were 5 groups: blank control group (PBS), solvent control group (DMSO or ethyl acetate), model group (H2O2), positive control group (Edaravone) and drug treatment group.
(§9) Model group: 0.5 mM hydrogen peroxide (H2O2) was used to treat for 1 hour.
(§10) Positive control group: Edaravone (2 μg/ml ), used as a positive drug, was added to cell and pre-treated for 6 hours, into which 0.5 mM hydrogen peroxide was added to damage for 1 hour and replaced with freshly-prepared DMEM+10%FBS culture medium.
(§11) Drug treatment group: after the cell was inoculated into culture microplate, different tested drugs at different concentration were added firstly and pre-treated for 6 hours with 20 μl per well, into which 0.5 mM H2O2 was added to damage for 1 hour, and then replaced with freshly-prepared DMEM+10%FBS culture medium.
e. The activity of cell in cell microplate was determined by MTT method.

[2] = system: H2O2-damaged PC12 cell; experiment: LDH activity of H2O2-damaged PC12 cell; type: cell-based; conditions: pre-treated 6 hours, 0.5 mM H2O2 1 hour, supernatant
Method: (§12) The experiment of determination was carried out according to the Specification of LDH test kit provided by Nanjing Jiangcheng Bioengineering Institute.
(§13) LDH activity (U/L)=(ODU−ODC)/(ODS−ODB)×CS×N×1 000
(§14) Wherein, ODU represented the absorbance of the tested sample, ODC represented the absorbance of control sample, ODB represented the absorbance of blank, ODS represented the absorbance of standard solution, CS represented the standard concentration of 2 mmol/L, N represented the dilution multiple of sample before determination.
as §5, with “at” for “at,”
as §6, §8, §9, §10, §11
d. The supernatant was collected, 20 μl per well, for determination of LDH activity.

[3] = system: PC12 cell of oxygen-glucose deprivation; experiment: Cell survival rate of PC12 cell of oxygen-glucose deprivation (MTT method); type: cell-based; conditions: pre-treated 6 hours
Method: as §1, §2, §3, §4
as §5, with “at” for “at,”
as §6
c. Grouping and treatments: there were 3 groups: blank control group (normoxia+0.1% DMS0), model group (OGD+0.1% DMSO, oxygen-glucose deprivation) and positive control group (Edaravone).
Model group: the cell in culture microplate was cultured with glucose-free DMEM medium, which was placed in a hypoxic chamber, started to record time for 0.5 hour when O2% was less than 2.6, and then transferred to a routine incubator. The determination was carried out after a period of time of incubation.
Positive control group: Edaravone (2 μg/ml) was used as a positive drug. Drug was added and pre-treated for 6 hours, and then replaced with glucose-free medium, 180 μl per well. The drug was added again, placed in a hypoxic chamber, started to record time for 0.5 hour when O2% was less than 2.6, and then transferred to a routine incubator. The determination was carried out after a period of time of incubation.
as §7
(§15) c. Grouping and treatments: there were 4 groups: blank control group (normoxia+0.1% DMSO), model group (OGD+DMSO, oxygen-glucose deprivation), positive control group (Edaravone) and the drug treatment group.
(§16) Model group: the culture medium for the cells in microplate was changed to glucose-free DMEM, placed in a hypoxic chamber, and started to record time for 0.5 hour when O2% was less than 2.6, and then transferred to a routine incubator to culture overnight.
(§17) Positive control group: Edaravone (2 μg/ml ) was used as a positive drug. Drug was added and pre-treated for 6 hours, and then the culture medium was replaced with glucose-free DMEM medium, 180 μl per well. The drug was added again, placed in a hypoxic chamber, started to record time for 0.5 hour when 02% was less than 2.6, and then transferred to a routine incubator to culture overnight.
(§18) Drug treatment group: the drug at different concentrations was added and pre-treated for 6 hours, the culture medium was changed to glucose-free DMEM medium, 180 μl per well. The drug was added again, placed in a hypoxic chamber, started to record time for 0.5 hour when O2% was less than 2.6, and then transferred to a routine incubator to culture overnight.
e. The activity of cell was determined by MTT method.

[4] = system: PC12 cell of oxygen-glucose deprivation (OGD); experiment: LDH activity of PC12 cell of oxygen-glucose deprivation (OGD); type: cell-based; conditions: pre-treated 6 hours, OGD 0.5 hour, cultured overnight, supernatant
Method: as §12, §13, §14
as §5, with “at” for “at,”
as §6, §15, §16, §17, §18
d. Resulting supernatant was collected the next day with 20 μl per well, which was used for determination of LDH activity.

[5] = DPPH free-radical scavenging reaction; type: biochemical; conditions: for DPPH free-radical scavenging rate: 20 min, 25° C., 517 nm
Method: In this study, 1,1-diphenyl-2-picryl-hydrazyl (DPPH) free-radical scavenging reaction model has been used to observe the free-radical scavenging activity of the salvianolic acid L. The total reaction volume was 2 ml. 1 ml of the sample solutions at different concentrations in 80% methanol (v/v) were added into 100 μM of DPPH methanol solution, mixed uniformly to allow the solution to react for 20 min at 25° C. in the dark. Absorbance of the reaction solution was measured at 517 nm. In this study, vitamin C was regarded as a positive control. Free-radical scavenging rate was calculated in accordance with the following equation: Free-radical scavenging rate (%)=[1−Asample/Acontrol)/Acontrol]×100% Wherein, the Asample means the absorbance of the tested samples, and Acontrol means the absorbance of blank control.

[6] = Determination of reducing capacity (potassium ferricyanide / ferric chloride, absorbance at 700 nm); type: biochemical; conditions: FIG. 10; in words, compared with vitamin C
Method: 0.5 ml of 200 mM phosphate buffer (pH6.8) containing different concentrations of the salvianolic acid L and 1.0% potassium ferricyanide solution were sucked respectively and cooled on an ice bath after being heated on a water bath (50° C.) for 20 min. 0.5 ml of trichloroacetic acid solution (10%) was added and centrifuged at […] for 10 min. 1.0 ml of the resulting supernatant was taken, into which 1.0 ml of distilled water and 0.2 ml of ferric chloride solution (0.1%) were added, stood still for 10 min and the absorbance was measured at 700 nm. Meanwhile, the blank experiment was carried out. Vitamin C is a strongly reducing substance, acting as positive control in this study. Reducing capacity of the sample is represented by subtracting the absorbance of the blank control from the absorbance of the tested sample. Thus, it means the higher absorbance, the stronger reducing capacity.

[7] = final concentration 0.02 μg/ml, OGD 0.5 hour, cultured overnight
[8] = final concentration 0.2 μg/ml, OGD 0.5 hour, cultured overnight
[9] = final concentration 2 μg/ml, OGD 0.5 hour, cultured overnight

Question: Which “Survival rate (%)” value ([1]; establishment of hydrogen peroxide-damaged model, 2 μg/ml) does the source give for `CC1=NN(c2ccccc2)C(=O)C1` [Edaravone] here?
Answer: 53.54 ± 3.66 %

Question: What about the “Survival rate (%)” value ([1]; final concentration 0.02 μg/ml) of the same compound?
Answer: 47.6 ± 2 %

Question: What about the “Survival rate (%)” value ([1]; final concentration 0.2 μg/ml) of the same compound?
Answer: 44.2 ± 6.11%

Question: And the “Survival rate (%)” value ([1]; final concentration 2 μg/ml)?
Answer: 58.18 ± 2.64 %

Question: What about the “LDH activity (U/L)” value ([2]; final concentration 0.02 μg/ml) of the same compound?
Answer: 532.44 ± 11.55 U/L

Question: What about the “LDH activity (U/L)” value ([2]; final concentration 0.2 μg/ml) of the same compound?
Answer: 568.23 ± 11.55 U/L

Question: And the “LDH activity (U/L)” value ([2]; final concentration 2 μg/ml)?
Answer: 523.49 ± 5.17 U/L

Question: And the “Survival rate (%)” value ([3]; establishment of oxygen-glucose deprivation model, 2 μg/ml)?
Answer: 48.50 ± 1.81 %

Question: What about the “Survival rate (%)” value [3, 7] of the same compound?
Answer: 44.75 ± 1.02 %

Question: And the “Survival rate (%)” value [3, 8]?
Answer: 36.37 ± 2.52 %

Question: What about the “Survival rate (%)” value [3, 9] of the same compound?
Answer: 39.99 ± 0.55 %

Question: And the “LDH activity (U/L)” value ([4]; final concentration 0.02 μg/ml)?
Answer: 40.27 ± 5.17 U/L

Question: And the “LDH activity (U/L)” value ([4]; final concentration 0.2 μg/ml)?
Answer: 22.37 ± 5.17 U/L

Question: What about the “LDH activity (U/L)” value ([4]; final concentration 2 μg/ml) of the same compound?
Answer: 31.32 ± 5.17 U/L

Question: Which “DPPH free-radical scavenging rate” value ([5]; sample 0.314 μg/ml) does the source give for `O=C1O[C@H]([C@@H](O)CO)C(O)=C1O` [Vitamin C] here?
Answer: 3.42 ± 0.42%

Question: What about the “DPPH free-radical scavenging rate” value ([5]; sample 0.625 μg/ml) of the same compound?
Answer: 7.06 ± 1.88%

Question: What about the “DPPH free-radical scavenging rate” value ([5]; sample 1.25 μg/ml) of the same compound?
Answer: 13.82 ± 1.83%

Question: And the “DPPH free-radical scavenging rate” value ([5]; sample 2.5 μg/ml)?
Answer: 29.39 ± 5.92%

Question: What about the “DPPH free-radical scavenging rate” value ([5]; sample 5 μg/ml) of the same compound?
Answer: 55.34 ± 7.21%

Question: For `O=C(/C=C/c1ccc(O)c(O)c1/C(=C/c1ccc(O)c(O)c1)C(=O)O)OC(Cc1ccc(O)c(O)c1)C(=O)O` (centres unmarked) [salvianolic acid L], which “DPPH free-radical scavenging rate (in words)” value ([5]; compared with vitamin C, Table 3 and FIG. 9) is on record?
Answer: much higher free-radical scavenging rate than that of the vitamin C

Question: What about the “DPPH free-radical scavenging rate” value ([5]; sample 0.314 μg/ml) of the same compound?
Answer: 5.41 ± 0.74%

Question: And the “DPPH free-radical scavenging rate” value ([5]; sample 0.625 μg/ml)?
Answer: 12.95 ± 2.42%

Question: What about the “DPPH free-radical scavenging rate” value ([5]; sample 1.25 μg/ml) of the same compound?
Answer: 25.21 ± 1.82%

Question: What about the “DPPH free-radical scavenging rate” value ([5]; sample 2.5 μg/ml) of the same compound?
Answer: 44.19 ± 3.70%

Question: And the “DPPH free-radical scavenging rate” value ([5]; sample 5 μg/ml)?
Answer: 83.17 ± 4.12%

Question: And the “reducing capacity (absorbance at 700 nm minus blank)” value [6]?
Answer: much stronger than that of vitamin C

Question: And the “Survival rate (%)” value ([1]; final concentration 0.02 μg/ml)?
Answer: 47.2 ± 0.8 %

Question: And the “Survival rate (%)” value ([1]; final concentration 0.2 μg/ml)?
Answer: 44.89 ± 0.48%

Question: And the “Survival rate (%)” value ([1]; final concentration 2 μg/ml)?
Answer: 48.34 ± 0.25%

Question: What about the “LDH activity (U/L)” value ([2]; final concentration 0.02 μg/ml) of the same compound?
Answer: 550.336 ± 25.83 U/L

Question: What about the “LDH activity (U/L)” value ([2]; final concentration 0.2 μg/ml) of the same compound?
Answer: 474.27 ± 71.96 U/L

Question: What about the “LDH activity (U/L)” value ([2]; final concentration 2 μg/ml) of the same compound?
Answer: 487.70 ± 72.51 U/L

Question: What about the “Survival rate (%)” value [3, 7] of the same compound?
Answer: 47.74 ± 1.72 %

Question: What about the “Survival rate (%)” value [3, 8] of the same compound?
Answer: 36.68 ± 2.72 %

Question: And the “Survival rate (%)” value [3, 9]?
Answer: 35.96 ± 1.44%

Question: What about the “LDH activity (U/L)” value ([4]; final concentration 0.02 μg/ml) of the same compound?
Answer: 53.69 ± 29.23 U/L

Question: What about the “LDH activity (U/L)” value ([4]; final concentration 0.2 μg/ml) of the same compound?
Answer: 31.32 ± 11.55 U/L

Question: And the “LDH activity (U/L)” value ([4]; final concentration 2 μg/ml)?
Answer: 40.27 ± 5.17 U/L
